Experimental findings from publication PMC12040169 (PLOS Biology, 2025) are described below.

The viability is a read-out of living cells in per cent, often relative to untreated cells.

The data set is described as follows: in vitro. Conditions: human, hela cells, % viability.
In the case of `O=C1Nc2ccc(-c3cccc(C(F)(F)F)c3)cc2C(=O)N2CCN(C(=O)C3CC3)C[C@H]12` [CBK289585], the viability at 28.5 h, 10 µM was 79.4%.

Take `O=C1Nc2cc(Cl)ccc2C(=O)N2CCN(C(=O)C3CCCCC3)C[C@H]12` [CBK289586]: the viability at 28.5 h, 10 µM turned out to be 87.1%.

For the molecule `COCC(=O)N1CCN2C(=O)c3ccc(Cl)cc3NC(=O)[C@H]2C1` [CBK289588], the viability at 28.5 h, 10 µM is 84.6%.

With `O=C1Nc2ccc(Br)cc2C(=O)N2CCN(C(=O)c3ccccc3)C[C@H]12` [CBK289589], the viability at 28.5 h, 10 µM worked out at 121%.

For the molecule `O=C1Nc2ccc(-c3ccc(Cl)cc3)cc2C(=O)N2CCN(C(=O)c3cccnc3)C[C@H]12` [CBK289590], the viability at 28.5 h, 10 µM was determined as 107%.

In the case of `O=C1Nc2ccc(-c3ccccc3F)cc2C(=O)N2CCN(C(=O)c3cccnc3)C[C@H]12` [CBK289591], the viability at 28.5 h, 10 µM came out at 111%.

`CC(C)NC(=O)N1CCN2C(=O)c3cc(-c4ccc(Cl)cc4)ccc3NC(=O)[C@H]2C1` [CBK289596]: the viability at 28.5 h, 10 µM is 79.5%.

As to `COc1ccc(C[C@@H]2NC(=O)[C@@H]3CN(C(=O)c4ccc(OC)cc4)CCN3C2=O)cc1` [CBK289598], the viability at 28.5 h, 10 µM turned out to be 94.1%.

Turning to `CN(C)c1ccc(C(=O)N2CCN3C(=O)[C@H](Cc4ccc(F)cc4)NC(=O)[C@H]3C2)cc1` [CBK289601], the viability at 28.5 h, 10 µM is 109%.

For the molecule `O=C1N[C@@H](Cc2ccc(F)cc2)C(=O)N2CCN(C(=O)N3CCOCC3)C[C@H]12` [CBK289603], the viability at 28.5 h, 10 µM came out at 109%.

`COCC(=O)N1CCN2C(=O)[C@@H]3C[C@@H](OCc4ccc(F)cc4)CN3C(=O)[C@@H]2C1` [CBK289605]: the viability at 28.5 h, 10 µM was 99.1%.

`COC(=O)[C@@H]1CN(C(=O)Nc2ccccc2)CCN1C(C)=O` [CBK289606]: the viability at 28.5 h, 10 µM stood at 88%.

As to `COC(=O)[C@@H]1CN(C(=O)Nc2ccccc2)CCN1C(=O)C1CCCCC1` [CBK289607], the viability at 28.5 h, 10 µM was 91%.

Take `COCC(=O)N1CCN(C(=O)c2cccc(F)c2)C[C@H]1C(=O)OC` [CBK289608]: the viability at 28.5 h, 10 µM worked out at 89.4%.

On to `CC(C)N1C(=O)[C@@H]2CN(C(=O)C3CCCC3)CCN2C1=O` [CBK289612], for which the viability at 28.5 h, 10 µM was determined as 88.8%.

Take `COCC(=O)N1CCN(C(=O)N2CCOCC2)C[C@@H]1C(=O)OC` [CBK289613]: the viability at 28.5 h, 10 µM came to 109%.

With `COCC(=O)N1CCN(C(=O)c2cccs2)[C@@H](C(=O)OC)C1` [CBK289614], the viability at 28.5 h, 10 µM came to 111%.

`COc1cccc(NC(=O)N2CCN3C(=O)[C@H](CC4CCCCC4)NC(=O)[C@H]3C2)c1` [CBK289615]: the viability at 28.5 h, 10 µM came out at 117%.

As for `COc1ccc(C[C@@H]2NC(=O)[C@H]3CN(C(=O)c4cccn4C)CCN3C2=O)cc1` [CBK289616], the viability at 28.5 h, 10 µM is 93.4%.

Consider `COC(=O)[C@@H](C)NC(=O)[C@@H]1CN(C(=O)c2cccc(F)c2)CCN1C(C)=O` [CBK289620], for which the viability at 28.5 h, 10 µM came out at 91.3%.

With `COC(=O)[C@@H](C)NC(=O)[C@@H]1CN(C(=O)c2cccc(F)c2)CCN1C(=O)C1CCCCC1` [CBK289621], the viability at 28.5 h, 10 µM turned out to be 87.4%.

`COC(=O)[C@@H](C)NC(=O)[C@@H]1CN(S(C)(=O)=O)CCN1C(=O)c1cccs1` [CBK289623]: the viability at 28.5 h, 10 µM stood at 89.6%.

In the case of `COC(=O)[C@@H](C)NC(=O)[C@H]1CN(C(=O)c2cccnc2)CCN1C(=O)NC1CCCCC1` [CBK289632], the viability at 28.5 h, 10 µM was found to be 86%.

Consider `CC(=O)N1CCN(C(=O)NC(C)C)C[C@@H]1C(=O)N[C@@H](CC1CCCCC1)C(N)=O` [CBK289633], for which the viability at 28.5 h, 10 µM came out at 91.8%.

For the molecule `O=C1NCCC[C@@H]1NC(=O)[C@H]1CN(C(=O)c2ccccc2)CCN1C(=O)c1cccnc1` [CBK289634], the viability at 28.5 h, 10 µM came out at 108%.

`C[C@@H](c1ccccc1)N1C(=O)[C@@H]2CN(S(=O)(=O)c3cccs3)CCN2C1=O` [CBK289635]: the viability at 28.5 h, 10 µM came to 91.3%.

As for `C[C@@H](c1ccccc1)N1C(=O)[C@@H]2CN(C(=O)COCC(=O)O)CCN2C1=O` [CBK289636], the viability at 28.5 h, 10 µM was 94.3%.

`C[C@H](c1ccccc1)N1C(=O)[C@@H]2CN(C(=O)CC(C)(C)C)CCN2C1=O` [CBK289638]: the viability at 28.5 h, 10 µM came out at 89.5%.

`CC(C)(C)c1cc(CC2(NCc3ccco3)COC2)no1` [CBK289642]: the viability at 28.5 h, 10 µM turned out to be 108%.

For `c1ccc(CNC2(Cc3cc(-c4ccccn4)on3)COC2)cc1` [CBK289643], the viability at 28.5 h, 10 µM stood at 87.9%.

As to `Oc1cccc(-c2cc(CC3(NCc4ccc(F)cc4)COC3)no2)c1` [CBK289646], the viability at 28.5 h, 10 µM came to 108%.

Consider `N#Cc1ccc(CNC2(Cc3cc(CO)on3)COC2)cc1` [CBK289647], for which the viability at 28.5 h, 10 µM was determined as 104%.

With `O=C(N[C@@H](Cn1cc(Cl)c(=O)[nH]c1=O)C(=O)O)C1CCCCC1` [CBK289648], the viability at 28.5 h, 10 µM was found to be 98.7%.

Turning to `O=C(N[C@@H](Cn1cc(Cl)c(=O)[nH]c1=O)C(=O)O)c1cccc(F)c1` [CBK289650], the viability at 28.5 h, 10 µM was determined as 118%.

As for `O=C(O)COCC(=O)N1C[C@@H]2OCC(=O)N(Cc3ccccc3)[C@@H]2C1` [CBK289652], the viability at 28.5 h, 10 µM is 101%.

As to `Oc1ccccc1CNC1(Cc2cc(-c3ccc(F)cc3)on2)COC1` [CBK289655], the viability at 28.5 h, 10 µM stood at 95.8%.

As for `CC(C)(O)c1cc(CC2(NCC3CCCCC3)COC2)no1` [CBK289656], the viability at 28.5 h, 10 µM came out at 89.7%.

Take `O=C(N[C@@H](Cn1cc(Cl)c(=O)[nH]c1=O)C(=O)O)C1CCCC1` [CBK289658]: the viability at 28.5 h, 10 µM is 113%.

For the molecule `O=C(N[C@@H](Cn1cc(F)c(=O)[nH]c1=O)C(=O)O)C1CCCC1` [CBK289660], the viability at 28.5 h, 10 µM was 109%.

`O=C(N[C@@H](Cn1cc(F)c(=O)[nH]c1=O)C(=O)O)C1CCCCC1` [CBK289661]: the viability at 28.5 h, 10 µM came to 89.2%.

In the case of `CCc1cn(C[C@H](NC(=O)C2CCC2)C(=O)O)c(=O)[nH]c1=O` [CBK289663], the viability at 28.5 h, 10 µM was 97.1%.

On to `COc1ccnc(N2C[C@@H]3OCC(=O)N(Cc4ccccc4)[C@@H]3C2)n1` [CBK289666], for which the viability at 28.5 h, 10 µM came out at 91%.

With `CC(=O)N1C[C@@H]2OCC(=O)N(Cc3nccn3C)[C@@H]2C1` [CBK289668], the viability at 28.5 h, 10 µM worked out at 90.6%.

In the case of `Cc1cc(C(=O)Nc2ccc([C@@H](O)[C@H]3COCC(=O)N3Cc3ccccc3)cc2)n(C)n1` [CBK289669], the viability at 28.5 h, 10 µM was found to be 89%.

On to `CCNC1(Cc2cc(C(=O)N3CCCCC3)on2)COC1` [CBK289671], for which the viability at 28.5 h, 10 µM amounted to 84.2%.

Turning to `N#Cc1ccc(CNC2(Cc3cc(C(=O)N4CCCCC4)on3)COC2)cc1` [CBK289672], the viability at 28.5 h, 10 µM worked out at 87%.

On to `COc1ccc(CN2C(=O)COC[C@@H]2[C@H](O)c2ccc(NC(C)=O)cc2)cc1` [CBK289674], for which the viability at 28.5 h, 10 µM was 95.6%.

`COc1ccc(CN2C(=O)COC[C@@H]2[C@H](O)c2ccc(NC(=O)c3ccc(OC)cc3)cc2)cc1` [CBK289675]: the viability at 28.5 h, 10 µM is 95.9%.

For `CCN1C(=O)COC[C@@H]1[C@H](O)c1ccc(NC(=O)Cc2ccc(OC)cc2)cc1` [CBK289676], the viability at 28.5 h, 10 µM came out at 90.2%.

As for `CCC(CC)C(=O)Nc1ccc([C@@H](O)[C@H]2COCC(=O)N2Cc2ccc(OC)cc2)cc1` [CBK289677], the viability at 28.5 h, 10 µM was 102%.

On to `CC(=O)Nc1ccc([C@@H](O)[C@H]2COCC(=O)N2Cc2ccc(C(F)(F)F)cc2)cc1` [CBK289678], for which the viability at 28.5 h, 10 µM worked out at 92.7%.
